Like-named read-outs stand apart in the source and are kept apart here.
Tests used:
[1] = target: T1, folate receptor α (FRα) (Homo sapiens, UniProt P15328); experiment: 3H-folic acid competition radioligand assay on […] cells transfected with FRα; assay type: cell-based
T1 construct: gene FOLR1

[2] = target: T2, folate receptor β (FRβ) (Homo sapiens, UniProt P14207); experiment: 3H-folic acid competition radioligand assay on […] cells transfected with FRβ; assay type: cell-based
T2 construct: gene FOLR2
T2 sequence (P14207 17-230): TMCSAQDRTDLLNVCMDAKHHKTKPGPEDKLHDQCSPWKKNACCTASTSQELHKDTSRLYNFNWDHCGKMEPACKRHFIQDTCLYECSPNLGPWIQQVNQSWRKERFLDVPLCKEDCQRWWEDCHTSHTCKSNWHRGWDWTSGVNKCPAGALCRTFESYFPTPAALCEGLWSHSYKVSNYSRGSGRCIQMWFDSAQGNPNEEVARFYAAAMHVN

[3] = target: T2, folate receptor β (FRβ); experiment: as above

T1 sequence (P15328 25-234): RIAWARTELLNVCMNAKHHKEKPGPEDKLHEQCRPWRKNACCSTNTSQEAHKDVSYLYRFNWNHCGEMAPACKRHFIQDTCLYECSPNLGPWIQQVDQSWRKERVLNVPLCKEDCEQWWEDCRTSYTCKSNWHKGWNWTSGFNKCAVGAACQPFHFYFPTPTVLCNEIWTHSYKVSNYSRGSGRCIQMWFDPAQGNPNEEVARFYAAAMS

**Q.** Which Kd [1] does the source give for CC1(C)C(=CC=C2CCCC(C=CC3=[N+](CCCCS(=O)(=O)[O-])c4ccc(S(=O)(=O)O)cc4C3(C)C)=C2Oc2ccc(C[C@H](NC(=O)c3ccc(CCc4c[nH]c5[nH]c(N)nc(=O)c45)cc3)C(=O)O)cc2)N(CCCCS(=O)(=O)O)c2ccc(S(=O)(=O)O)cc21 [NY-07] here?
**A.** 61.7 nM

**Q.** And the Kd [2]?
**A.** 487 nM

**Q.** Which Kd [3] does the source give for Nc1nc(=O)c2nc(CNc3ccc(C(=O)N[C@@H](CCC(=O)O)C(=O)O)cc3)cnc2[nH]1 [folate, folic acid] here?
**A.** Assessment of K d of folate, OTL38, and NY-07 to FRβ.
